Laboratory results published in patent publication US20070092444A1, “Inhibition of inward sodium currents in cancer” (priority 2003, published 2007).

How the values were obtained:
[1] = tested on: SKMG, U373, and U251 glioma cell lines; test: MTT Cell Proliferation Assay, three GBM cell lines; type: cell-based, human; conditions: drug concentrations between 10-100 μM
Method: Cells were plated in 96-well plates at 1000, 4000, and 2000 cells/well for SK-MG, U373, and U251 cells, respectively. Drug was added at specified concentration on day 3 after plating (at the beginning of log phase of growth).
(§1) If the Na^+ conductance seen in high-grade glioma cells was required or linked to the high rate of cell growth, inhibition of the pathway should result in inhibition of cell growth and/or cell death. […] However, benzamil is ineffective in inhibiting Na^+/H^+ exchange in glial cells (73), yet still can inhibit proliferation in this assay. […] Therefore, inhibition of the inward Na^+ current results in inhibition and/or stoppage of cell growth. These observations establish the importance of this pathway in tumor cell biology.

U87-MG and SK-MG cells = test: [^3H]-thymidine incorporation; type: cell-based, human; conditions: same concentration range (10-100 μM)
From the text: as §1

U87-MG cells = test: Transwell Migration Assay, U87-MG cells; type: cell-based, human; conditions: concentration-dependent
[2] = Activity of tyrosine-extended PcTX1 compared with unmodified PcTX1
ASIC1+ASIC2+γ-hENaC = target: T1, ASIC1+ASIC2+γ-hENaC (Homo sapiens, UniProt P51170+P78348+Q16515); test: ASIC1+ASIC2+γ-hENaC in planar lipid bilayers; type: biochemical; conditions: 25 μM, cis bathing solution; γ-hENaC co-expressed with ASIC1/2
T1 construct: made in house; host or cells: Xenopus oocytes (membrane vesicles)
Method: FIGS. 14A and B show the effect of syntaxin 1A on ASIC1+ASIC2 (FIG. 14A) and ASIC1+ASIC2+γ-hENaC (FIG. 14B) in planar lipid bilayers. The holding potential was +100 mV and records were filtered at 200 Hz.
The effect of syntaxin 1A on constitutive amiloride-sensitive inward Na^+ current activity in planar lipid bilayers was examined (FIGS. 14A and B). For these experiments, membrane vesicles were prepared from oocytes that were previously injected with cRNA encoding both ASIC1 and ASIC2±γ-hENaC. […] Syntaxin 1A was then added as a GST fusion protein to the cis (or cytoplasmic) bathing solution. […] The same results were found in oocyte expression studies (FIG. 15).

T1 sequence (Q16515 whole entry): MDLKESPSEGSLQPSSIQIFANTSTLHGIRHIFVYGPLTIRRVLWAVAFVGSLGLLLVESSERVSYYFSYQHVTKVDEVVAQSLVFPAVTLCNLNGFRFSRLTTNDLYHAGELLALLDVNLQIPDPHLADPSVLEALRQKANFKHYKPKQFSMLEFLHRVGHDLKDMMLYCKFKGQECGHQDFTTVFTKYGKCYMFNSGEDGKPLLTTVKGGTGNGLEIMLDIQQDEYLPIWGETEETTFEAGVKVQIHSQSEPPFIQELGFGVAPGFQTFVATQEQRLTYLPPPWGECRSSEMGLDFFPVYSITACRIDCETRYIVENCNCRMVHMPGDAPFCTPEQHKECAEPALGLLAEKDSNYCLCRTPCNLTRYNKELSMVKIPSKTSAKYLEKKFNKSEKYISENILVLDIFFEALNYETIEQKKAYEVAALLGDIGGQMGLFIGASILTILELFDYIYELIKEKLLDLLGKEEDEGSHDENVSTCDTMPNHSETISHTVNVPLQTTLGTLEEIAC
T1 sequence (P78348 whole entry): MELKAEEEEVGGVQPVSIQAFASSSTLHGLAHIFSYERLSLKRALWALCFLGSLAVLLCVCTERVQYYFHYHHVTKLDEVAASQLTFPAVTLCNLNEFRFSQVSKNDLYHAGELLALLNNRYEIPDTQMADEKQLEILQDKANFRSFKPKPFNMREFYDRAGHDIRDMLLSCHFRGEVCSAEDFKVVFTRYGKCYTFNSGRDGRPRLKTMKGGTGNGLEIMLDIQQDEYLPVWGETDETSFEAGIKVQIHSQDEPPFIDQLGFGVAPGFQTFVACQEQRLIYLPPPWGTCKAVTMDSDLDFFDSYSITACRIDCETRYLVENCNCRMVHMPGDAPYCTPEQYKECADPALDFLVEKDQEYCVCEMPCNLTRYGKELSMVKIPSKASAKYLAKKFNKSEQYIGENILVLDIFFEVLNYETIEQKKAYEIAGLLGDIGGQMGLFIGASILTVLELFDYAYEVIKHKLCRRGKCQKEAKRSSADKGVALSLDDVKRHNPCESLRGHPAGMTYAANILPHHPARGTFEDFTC
T1 sequence (P51170 whole entry): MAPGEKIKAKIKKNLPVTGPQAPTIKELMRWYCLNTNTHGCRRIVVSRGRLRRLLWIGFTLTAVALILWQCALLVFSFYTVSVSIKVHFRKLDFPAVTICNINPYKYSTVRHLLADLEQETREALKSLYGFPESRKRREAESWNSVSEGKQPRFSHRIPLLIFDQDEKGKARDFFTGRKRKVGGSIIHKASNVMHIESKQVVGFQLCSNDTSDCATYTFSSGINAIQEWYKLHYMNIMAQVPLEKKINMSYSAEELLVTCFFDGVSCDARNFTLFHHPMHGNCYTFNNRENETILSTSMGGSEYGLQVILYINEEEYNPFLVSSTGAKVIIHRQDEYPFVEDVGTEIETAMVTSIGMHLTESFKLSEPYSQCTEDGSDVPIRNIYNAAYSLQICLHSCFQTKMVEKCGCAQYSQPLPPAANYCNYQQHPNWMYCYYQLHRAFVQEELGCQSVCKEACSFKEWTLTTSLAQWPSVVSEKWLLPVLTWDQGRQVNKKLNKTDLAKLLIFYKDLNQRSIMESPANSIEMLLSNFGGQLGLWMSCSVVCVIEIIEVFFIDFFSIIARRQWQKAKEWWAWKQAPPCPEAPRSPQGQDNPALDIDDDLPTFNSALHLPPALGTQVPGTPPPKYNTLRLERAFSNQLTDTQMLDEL

For `NC(=Nc1ccccc1)NC(=O)c1nc(Cl)c(N)nc1N` [phenamil], the “relative rate of proliferation” value [1] was “significantly inhibited”.

With `N=C(N)NC(=O)c1ncc(N)nc1N` [N-amidino-3,5-diamino-pyrazinecarboxamide] the “[^3H]-thymidine incorporation” value (U87-MG and SK-MG cells) was “did not affect” and the Transwell migration (U87-MG cells) was “did not”.

With “SEQ ID NO. 2: PcTX1 with a tyrosine residue or other residue at one end to aid linking to the tag protein (EDCIPKWKGCVNRHGDCCEGLECWKRRRSFEVCVPKTPKTY; listed as Psalmopoeus cambridgei)” the “activity relative to unmodified PcTX1” value [2] was “identical to the unmodified PcTX1 sequence”.

B1: syntaxin 3: syntaxin family member used as specificity control (protein, UniProt Q13277 1-289, looked up)
Syntaxin-3: MKDRLEQLKAKQLTQDDDTDAVEIAIDNTAFMDEFFSEIEETRLNIDKISEHVEEAKKLYSIILSAPIPEPKTKDDLEQLTTEIKKRANNVRNKLKSMEKHIEEDEVRSSADLRIRKSQHSVLSRKFVEVMTKYNEAQVDFRERSKGRIQRQLEITGKKTTDEELEEMLESGNPAIFTSGIIDSQISKQALSEIEGRHKDIVRLESSIKELHDMFMDIAMLVENQGEMLDNIELNVMHTVDHVEKARDETKKAVKYQSQARKKLIIIIVLVVVLLGILALIIGLSVGLN
With B1 the “inhibition of channel Po” value (ASIC1+ASIC2+γ-hENaC) was “without effect”.
